{
  "source": "patent US6379655B1",
  "about": "“Photoprotective/cosmetic compositions comprising aminoamidine sunscreens” (Societe l'Oreal S.A., priority 1999, dated 2002)",
  "key": {"[1]": {"assay": "UV absorption (sunscreening properties) in ethanol", "assay_type": "physicochemical", "description": "This compound had the following sunscreening properties:\nspectral domain where ε is greater than 10,000: 297 to 377 nm."}, "[2]": {"assay": "photostability protocol for cosmetic UV filters", "assay_type": "physicochemical", "settings": "protocol of Inter. J. Cosm. Sci., 1996, 18, 167-177", "description": "Loss of 5% after subjecting to the photostability protocol (according to BERST G., GONZPNBACH H., CHRIST R., MARTIN R., DEFLANDRE A., MASCOTTO R. E., JOLLEY J. D. R., LOWELL W., PELZER R., STIEHM T., Inter. J. Cosm.Sci., 1996, 18, 167-177. Proposed protocol for determination of photostability Part I: cosmetic UV filters)."}},
  "data": [
    {"smiles": "N/C(=N\\N=C\\c1ccccc1O)c1cnccn1", "note": "[Compound 52, N′-[(E)-2-hydroxyphenylmethylidene]pyrazinecarbohydrazonamide]", "values": [
      {"measurement": "E1%", "setting": "[1]", "result": 1010},
      {"measurement": "λmax", "setting": "[1]", "result": 354.2, "unit": "nm"}
    ]},
    {"smiles": "N/C(=N\\N=C\\c1cccnc1)c1cnccn1", "note": "[Compound 76, N′-[(E)-3-pyridinylmethylidene]-2-pyrazinecarbohydrazonamide]", "values": [
      {"measurement": "E1%", "setting": "[1]", "result": 1016},
      {"measurement": "λmax", "setting": "[1]", "result": 341, "unit": "nm"},
      {"measurement": "Loss after subjecting to the photostability protocol", "setting": "[2]", "result": 5, "unit": "%"}
    ]},
    {"smiles": "N/C(=N\\N=C\\c1ccoc1)c1cnccn1", "note": "[Compound 70, N′-[(E)-3-furylmethylidene]-2-pyrazinecarbohydrazonamide]", "values": [
      {"measurement": "E1%", "setting": "[1]", "result": 832},
      {"measurement": "λmax", "setting": "[1]", "result": 335, "unit": "nm"}
    ]}
  ]
}
